Measured values taken from patent publication US20130203805A1, “Methods for treating anemia using inhibitors of hypoxia-inducible factor (HIF) hydroxylase” (FIBROGEN, INC., priority 2001, published 2013).
Read-outs that look alike come from different tables or passages of the source.

Assay type: in vivo, Sprague Dawley male rats
Conditions: rat, in vivo, ip
Method: The ability of a compound of the invention to treat anemia associated with post-ischemic acute renal failure was assayed using a procedure described by Vaziri et al. (1994, Am J Physiol 266(3 Pt 2):[…]-6.) Fifteen Sprague Dawley male rats (280-300 g) were obtained from Charles River Laboratories. On day 0, rats were treated by intraperitoneal injection with a single dose of saline (control; n=3) at 8 ml/kg, or cisplatin (CP; Bedford Laboratories, Bedford Ohio) at either 7 mg/kg (7 ml/kg; n=6) or 10 mg/kg (10 ml/kg; n=6). Blood samples (0.2 ml) were collected on days 5, 9, and 16 as follows. […] Blood samples were processed for hematocrit as described above to determine the degree of anemia produced in each animal. […] Blood samples (0.5 ml) were collected as described above immediately prior to treatment and 4 days after treatment initiation. Blood samples were analyzed for CBC and reticulocyte counts as described above. On day 9 after initiation of oral treatment, a blood sample (0.1 ml) was collected and processed for hematocrit as described above.

N.N.[Cl][Pt][Cl] [CP, cisplatin, reference compound]
reduction of hematocrit relative to controls (7 mg/kg): 14%
reduction of hematocrit relative to controls (10 mg/kg): 22%
